The record followed here is article PMC7688903 (Frontiers in Microbiology, 2020).

In one series the test system is E. coli ATCC 25922. Format: cell-based, Escherichia coli. The essentials:
(§1)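 Inocula were set to 0.5 McFarland and diluted to ~5 × 10^5 CFU/mL (bacteria, MH broth) or 0.5 × 10^3 to 2.5 × 10^3 CFU/mL (yeast, RPMI 1640). Peptide twofold dilutions were added, plates incubated 20 h at 37°C or 48 h at 35°C, then scored by eye.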

The next series has as its system P. aeruginosa ATCC 27853. Format: cell-based, Pseudomonas aeruginosa. The essentials: as §1
Series [1] has as its system carbapenem-resistant P. aeruginosa (CRPA) SIPI-012. Format: cell-based, Pseudomonas aeruginosa. The essentials: as §1
The subject of another series is A. baumannii ATCC 19606. Format: cell-based, Acinetobacter baumannii. In short, it runs like this: as §1
Series [2] concerns carbapenem-resistant A. baumannii (CRAB) SIPI-025. Format: cell-based, Acinetobacter baumannii. The essentials:
as §1

A further series relates to S. aureus ATCC 25923. In words: microbe, parasite or virus in culture. Format: cell-based, Staphylococcus aureus. As to conditions: ATCC 25923, 20 h. In short, it runs like this: as §1
Another series relates to C. albicans ATCC 10231. Put plainly: microbe, parasite or virus in culture. As to conditions: ATCC 10231, 48 h. Format: cell-based, Candida albicans. The essentials: as §1
Series [3] has as its system proteases secreted by C. albicans ATCC 10231. In words: in vitro. The following applies: Candida albicans, C. albicans ATCC 10231 culture supernatant, pH 8. The essentials: (§2)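 Cell-free culture supernatants (overnight, 37°C; MH broth for bacteria, 2% tryptone/2% dextrose for yeast) were centrifuged, adjusted to pH 8.0 and 0.22 μm filtered. Peptides at 0.5 mg/mL were incubated in supernatant 24 h at 37°C; remaining intact peptide measured by RP-HPLC, with peptide-free supernatant as negative control.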

Series [4] concerns proteases secreted by S. aureus ATCC 25923. Put plainly: in vitro. The following applies: Staphylococcus aureus, S. aureus ATCC 25923 culture supernatant, pH 8. In short, it runs like this: as §2
In a further series the test system is human erythrocytes. Put plainly: Hemolytic activity assay. The following applies: human RBC in PB, 37°C, 1 h, OD420, total lysis control 0.1% SDS, three technical replicates. Format: cell-based. In short, it runs like this: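 Washed RBCs from a healthy volunteer were incubated with peptides at 32–128 μM for 1 h at 37°C in PB. Hemoglobin release into the supernatant was read as OD420 against total lysis with 0.1% SDS, in three technical replicates.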

The test system of a further series is RAW 264.7 cells. Put plainly: Cell viability assay (MTT). Format: cell-based, mouse. The following applies: 1–128 μM peptide in DMEM with 4% FBS, 42 h, 595 nm, triplicate. In short, it runs like this: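 RAW 264.7 cells (1 × 10^4/well, DMEM + 10% FBS) grown overnight to 80% confluency, then exposed to peptides at 1–128 μM in DMEM with 4% FBS for 42 h at 37 °C. MTT read at 595 nm; viability relative to medium-only controls, triplicate, IC50 as 50% loss of viability.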

The subject of series [5] is proteases secreted by P. aeruginosa ATCC 27853. In words: in vitro. The following applies: Pseudomonas aeruginosa, P. aeruginosa ATCC 27853 culture supernatant, pH 8. The essentials:
as §2

For the next series, the system named is BALB/c mice. Put plainly: In vivo acute toxicity, single injection. Also noted: species or system mouse. As to conditions: three mice, monitored 24 h. How it is done:
Six-week-old mice (approximate weight: 18–20 g, SFP grade) were bred and maintained under specific pathogen-free conditions on a 12 h light/dark cycle. The peptides were dissolved in PBS (pH 7.4) and three mice were used for each dose. As a control, colistin was administered in a similar manner. The mice were monitored for 24 h and mice were weighed at the end of the experiment. The procedure was evaluated and approved by the Ethical Committee of Experimental Animals of the Chia Tai Tianqing Pharmaceutical Group in August 2019.
As summarized in Figure 6, a toxicity score was assigned as follows: no abnormalities = without signs; mild depression, poor motility, purple-black tail, and recovery in 1 h = mild signs; serious depression and poor motility even under stimulation = manifest signs; sudden death within 10 min = died of toxic effects.

The subject of a further series is P. aeruginosa ATCC 9027. Put plainly: In vivo antibacterial activity, lethal intraperitoneal infection. As to conditions: BALB/c mice, lethal i.p. dose of P. aeruginosa ATCC 9027, 10 mg/kg i.p. at 1 and 8 h post-infection, n = 10. How it is done: The in vivo antibacterial activities of the peptides were evaluated in BALB/c mice using P. aeruginosa ATCC 9027 as a test strain. A total of 20 mice (6 weeks old, approximate weight: 18–20 g, SFP grade) were first used to measure the minimal lethal doses (MLD) with 5 mice for each inoculum. Cell numbers of selected strains were determined from the colony numbers from the plate count agar and four inocula (1 × 10^6, 5 × 10^6, 1 × 10^7, and 5 × 10^7 CFU/mouse) were administered via intraperitoneal injection. The minimal lethal dose was determined by measuring the mortality rate after 72 h. BALB/c mice were then injected intraperitoneally with a lethal dose of P. aeruginosa ATCC 9027. […] Colistin (10 mg/kg) was used as a positive control. The survival of the animals was monitored over 7 d.

[6] abbreviates: carbapenem-resistant (CRPA) SIPI-012, 20 h.
Setting [7] is: carbapenem-resistant (CRAB) SIPI-025, 20 h.

Values after ≈ are worked out from the molar mass of the structure shown. Like-named read-outs stand apart in the source and are kept apart here. Marks after values point to notes of the source that are not given here. Where a SMILES comes first, the peptide text is derived from it. [ ]: non-standard residue; d: D form. hArg = N=C(N)NCCCC[C@H](N)C(=O)O; 2Thi = N[C@@H](Cc1cccs1)C(=O)O; Dab = NCC[C@H](N)C(=O)O; Dap = NC[C@H](N)C(=O)O

For orientation: fraction remaining means the share of the starting amount still present when the sample was taken. Lower therefore signals more turnover. The term IC50 denotes the concentration that gives 50% inhibition. A low value points to greater potency. With `CC(C)C[C@H](NC(=O)[C@H](Cc1ccc(O)cc1)NC(=O)[C@H](CCN)NC(=O)[C@H](CC(C)C)NC(=O)[C@H](CC(C)C)NC(=O)[C@H](CCN)NC(=O)[C@H](CCN)NC(=O)[C@H](Cc1ccccc1)NC(=O)[C@H](CC(C)C)NC(=O)[C@H](CCCCNC(=N)N)NC(=O)[C@@H](N)CCN)C(=O)N[C@@H](CCCCNC(=N)N)C(=O)N[C@@H](CCN)C(=O)N[C@@H](Cc1ccccc1)C(N)=O` [UP13] (H-[Dab][hArg]LF[Dab][Dab]LL[Dab]YL[hArg][Dab]F-NH2), the MIC in the series with E. coli ATCC 25922 (ATCC 25922, 20 h) was found to be 2 µg/mL (≈ 1.13 µM); with P. aeruginosa ATCC 27853 (ATCC 27853, 20 h), 2 µg/mL (≈ 1.13 µM); in series [1] (setting [6]) it was 4 µg/mL (≈ 2.26 µM); against A. baumannii ATCC 19606 (ATCC 19606, 20 h) it was 2 µg/mL (≈ 1.13 µM); in [2] (setting [7]) it was 2 µg/mL (≈ 1.13 µM); in the series on S. aureus ATCC 25923, 0.5 µg/mL (≈ 0.283 µM). In the series with C. albicans ATCC 10231, this compound yielded an MIC of 4 µg/mL (≈ 2.26 µM). Moreover, the amount remaining at 24 h, 0.5 mg/mL came out at 34 ± 6.12% in series [3] and 78.5 ± 3.39% in series [4]. The “Hemolysis rate (%)” value is 41.03 ± 1.38% in the series with human erythrocytes (64 μM) and “∼100.00* %” with human erythrocytes (128 μM). The same compound had an IC50 in the series on RAW 264.7 cells of 21.7 ± 4.14 µM.

As for `CC(C)C[C@H](NC(=O)[C@H](Cc1ccc(O)cc1)NC(=O)[C@H](CCN)NC(=O)[C@H](CC(C)C)NC(=O)[C@H](CC(C)C)NC(=O)[C@H](CCN)NC(=O)[C@H](CN)NC(=O)[C@H](Cc1cccs1)NC(=O)[C@H](CC(C)C)NC(=O)[C@H](CCCNC(=N)N)NC(=O)[C@@H](N)CCN)C(=O)N[C@@H](CCCCNC(=N)N)C(=O)N[C@@H](CCN)C(=O)N[C@@H](Cc1ccccc1)C(N)=O` [UP15] (H-[Dab]RL[2Thi][Dap][Dab]LL[Dab]YL[hArg][Dab]F-NH2), the MIC against E. coli ATCC 25922 (ATCC 25922, 20 h) is 2 µg/mL (≈ 1.15 µM); against P. aeruginosa ATCC 27853 (ATCC 27853, 20 h) it was 1 µg/mL (≈ 0.573 µM); in [1] (setting [6]) it was 4 µg/mL (≈ 2.29 µM); against A. baumannii ATCC 19606 (ATCC 19606, 20 h), 2 µg/mL (≈ 1.15 µM); in [2] (setting [7]), 2 µg/mL (≈ 1.15 µM); against S. aureus ATCC 25923 it was 1 µg/mL (≈ 0.573 µM). Besides, the MIC in the series on C. albicans ATCC 10231 was found to be 4 µg/mL (≈ 2.29 µM). Moreover, the results for the share remaining at 24 h, 0.5 mg/mL in [3] and in [4] were 21.1 ± 5.28% and 54.6 ± 4.19%, respectively. Further, the “Hemolysis rate (%)” value in the series with human erythrocytes (64 μM) came out at 54.16 ± 2.02 %; in the series on human erythrocytes (128 μM) it was 97.86 ± 3.07 %. The compound further gave a 50% inhibitory concentration (IC50) with RAW 264.7 cells of 28.7 ± 3.52 µM.

Consider `CC(C)C[C@H](NC(=O)[C@H](Cc1ccc(O)cc1)NC(=O)[C@H](CCN)NC(=O)[C@H](CC(C)C)NC(=O)[C@H](CC(C)C)NC(=O)[C@H](CN)NC(=O)[C@H](CN)NC(=O)[C@H](Cc1ccccc1)NC(=O)[C@H](CC(C)C)NC(=O)[C@H](CCCCNC(=N)N)NC(=O)[C@@H](N)CN)C(=O)N[C@@H](CCCCNC(=N)N)C(=O)N[C@@H](CCN)C(=O)N[C@@H](Cc1cccs1)C(N)=O` [UP11] (H-[Dap][hArg]LF[Dap][Dap]LL[Dab]YL[hArg][Dab][2Thi]-NH2), for which the MIC with E. coli ATCC 25922 (ATCC 25922, 20 h) came to 2 µg/mL (≈ 1.15 µM); in the series with P. aeruginosa ATCC 27853 (ATCC 27853, 20 h), 2 µg/mL (≈ 1.15 µM); in series [1] (setting [6]), 8 µg/mL (≈ 4.62 µM); in the series on A. baumannii ATCC 19606 (ATCC 19606, 20 h), 2 µg/mL (≈ 1.15 µM); in series [2] (setting [7]) it was 2 µg/mL (≈ 1.15 µM); in the series with S. aureus ATCC 25923 it was 1 µg/mL (≈ 0.577 µM). Besides, the MIC against C. albicans ATCC 10231 turned out to be 4 µg/mL (≈ 2.31 µM). The fraction remaining at 24 h, 0.5 mg/mL in series [5] was found to be 22.4 ± 1.72%; in [4] it was 35.7 ± 3.82%. The “Hemolysis rate (%)” value with human erythrocytes (64 μM) is 95.65 ± 2.31 %; in the series with human erythrocytes (128 μM) it was “∼100.00* %”. Half-maximal inhibition in the series with RAW 264.7 cells (IC50) required 28.3 ± 5.8 µM.

In the case of colistin [reference compound], the MIC was 0.25 µg/mL with E. coli ATCC 25922 (E. coli ATCC 25922, MH broth, 37°C, 20 h, visual, independent triplicate assays); 0.5 µg/mL in the series on P. aeruginosa ATCC 27853 (P. aeruginosa ATCC 27853, MH broth, 37°C, 20 h, visual, independent triplicate assays); 1 µg/mL in series [1] (CRPA SIPI-012, MH broth, 37°C, 20 h, visual, independent triplicate assays); 0.25 µg/mL in the series with A. baumannii ATCC 19606 (A. baumannii ATCC 19606, MH broth, 37°C, 20 h, visual, independent triplicate assays); 0.25 µg/mL in series [2] (CRAB SIPI-025, MH broth, 37°C, 20 h, visual, independent triplicate assays). Also, the figures for the “signs of toxicity after intravenous injection” value in the series on BALB/c mice (single i.v. dose 10 mg/kg) and in the series on BALB/c mice (single i.v. dose 20 mg/kg) were “two out of three mice dying immediately” and “all three mice dying”, respectively. The survival rate in the series on P. aeruginosa ATCC 9027 (after 3 d) and with P. aeruginosa ATCC 9027 (after 7 d) was 100% in each case.
